# Reference: PubChem BioAssay AID1845212 (Molecular Pharmacology Branch, DTP, NCI, 2023)
# Where “and” joins values, the source holds several entries; their conditions need not be identical. Identical values can stand only once.
# Tested on: NCI-H719 tumor spheroids, viability
# Assay: Anticancer human tumor NCI-H719 cell line growth inhibition;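 note: spheroids exposed to compounds for seven days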;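 for viability, T/C: percent viability relative to DMSO vehicle control as 100%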
# Settings: spheroids with HUVEC and MSC; for viability, T/C: stronger effect = lower value
# Method in brief: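 Complex tumor spheroids combined malignant cells with endothelial cells and mesenchymal stem cells. DNA-damaging drugs and DNA repair inhibitors were tested alone and in combination, at half-log dilutions down from clinical Cmax (top 10 microM if Cmax unknown), 0.25% DMSO final.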
compound,measurement,setting,value
CC1COCCN1c1cc(-c2ccnn2C)c2ccnc(-c3ccn[nH]3)c2n1 (stereo unspecified) + COc1cc2c(cc1O)CCNC21CSC2c3c(OC(C)=O)c(C)c4c(c3C(COC1=O)N1C(O)C3Cc5cc(C)c(OC)c(O)c5C(C21)N3C)OCO4,IC50,"curve of first compound, second compound 30 pM",< 0.0316 µM
same,IC50,"curve of first compound, second compound 94.9 pM",< 0.0316 µM
same,IC50,"curve of first compound, second compound 0.0003 µM",< 0.0316 µM
same,IC50,"curve of first compound, second compound 0.000949 µM",< 0.0316 µM
same,IC50,"curve of first compound, second compound 0.003 µM",< 0.0316 µM
same,"viability, T/C","second compound 30 pM, first compound 0.0316 µM",29%
same,"viability, T/C","second compound 30 pM, first compound 0.1 µM",19.2%
same,"viability, T/C","second compound 30 pM, first compound 0.316 µM",16.2%
same,"viability, T/C","second compound 30 pM, first compound 1 µM",9.83%
same,"viability, T/C","second compound 30 pM, first compound 3.16 µM",8.37%
same,"viability, T/C","second compound 30 pM, first compound 10 µM",11%
same,"viability, T/C","second compound 94.9 pM, first compound 0.0316 µM",13.6%
same,"viability, T/C","second compound 94.9 pM, first compound 0.1 µM",7.91%
same,"viability, T/C","second compound 94.9 pM, first compound 0.316 µM",7.75%
same,"viability, T/C","second compound 94.9 pM, first compound 1 µM",7.08%
same,"viability, T/C","second compound 94.9 pM, first compound 3.16 µM",6.07%
same,"viability, T/C","second compound 94.9 pM, first compound 10 µM",10.4%
same,"viability, T/C","second compound 0.0003 µM, first compound 0.0316 µM",7.42%
same,"viability, T/C","second compound 0.0003 µM, first compound 0.1 µM",7.97%
same,"viability, T/C","second compound 0.0003 µM, first compound 0.316 µM",6.18%
same,"viability, T/C","second compound 0.0003 µM, first compound 1 µM",5.64%
same,"viability, T/C","second compound 0.0003 µM, first compound 3.16 µM",6.36%
same,"viability, T/C","second compound 0.0003 µM, first compound 10 µM",9.31%
same,"viability, T/C","second compound 0.000949 µM, first compound 0.0316 µM",7.59%
same,"viability, T/C","second compound 0.000949 µM, first compound 0.1 µM",7.35%
same,"viability, T/C","second compound 0.000949 µM, first compound 0.316 µM",6.11%
same,"viability, T/C","second compound 0.000949 µM, first compound 1 µM",3.98%
same,"viability, T/C","second compound 0.000949 µM, first compound 3.16 µM",3.9%
same,"viability, T/C","second compound 0.000949 µM, first compound 10 µM",3.4%
same,"viability, T/C","second compound 0.003 µM, first compound 0.0316 µM",0.28%
same,"viability, T/C","second compound 0.003 µM, first compound 0.1 µM",0.46%
same,"viability, T/C","second compound 0.003 µM, first compound 0.316 µM",0.86%
same,"viability, T/C","second compound 0.003 µM, first compound 1 µM",1.82%
same,"viability, T/C","second compound 0.003 µM, first compound 3.16 µM",0.25%
same,"viability, T/C","second compound 0.003 µM, first compound 10 µM",0.52%
CNCc1ccc(-c2cc(-c3nc(-c4ccc(S(=O)(=O)C(C)C)cc4)cnc3N)on2)cc1,"viability, T/C",compound 0.00949 µM,96.3% and 108% and 109%
same,"viability, T/C",compound 0.03 µM,103% (2×) and 107%
same,"viability, T/C",compound 0.0949 µM,57.4% and 81.5% and 93.3%
same,"viability, T/C",compound 0.3 µM,41.9% and 37.8% and 43.2%
same,"viability, T/C",compound 0.949 µM,9.72% and 6.55% and 13.6%
same,IC50,curve of compound,0.158 µM and 0.216 µM and 0.264 µM
Cn1ncnc1[C@H]1c2n[nH]c(=O)c3cc(F)cc(c23)N[C@@H]1c1ccc(F)cc1 + Cn1nnc2c(C(N)=O)ncn2c1=O,IC50,"curve of first compound, second compound 1 µM",< 0.00949 µM
same,IC50,"curve of first compound, second compound 3.16 µM",< 0.00949 µM
same,IC50,"curve of first compound, second compound 10 µM",< 0.00949 µM
same,IC50,"curve of first compound, second compound 31.6 µM",< 0.00949 µM
same,IC50,"curve of first compound, second compound 100 µM",< 0.00949 µM
same,"viability, T/C","second compound 1 µM, first compound 0.00949 µM",18.9%
same,"viability, T/C","second compound 1 µM, first compound 0.03 µM",7.46%
same,"viability, T/C","second compound 1 µM, first compound 0.0949 µM",7.66%
same,"viability, T/C","second compound 1 µM, first compound 0.3 µM",7.07%
same,"viability, T/C","second compound 1 µM, first compound 0.949 µM",6.65%
same,"viability, T/C","second compound 1 µM, first compound 3 µM",7.52%
same,"viability, T/C","second compound 3.16 µM, first compound 0.00949 µM",14.8%
same,"viability, T/C","second compound 3.16 µM, first compound 0.03 µM",7.76%
same,"viability, T/C","second compound 3.16 µM, first compound 0.0949 µM",7.04%
same,"viability, T/C","second compound 3.16 µM, first compound 0.3 µM",7.11%
same,"viability, T/C","second compound 3.16 µM, first compound 0.949 µM",7.41%
same,"viability, T/C","second compound 3.16 µM, first compound 3 µM",8.3%
same,"viability, T/C","second compound 10 µM, first compound 0.00949 µM",7.72%
same,"viability, T/C","second compound 10 µM, first compound 0.03 µM",6.58%
same,"viability, T/C","second compound 10 µM, first compound 0.0949 µM",7.6%
same,"viability, T/C","second compound 10 µM, first compound 0.3 µM",6.29%
same,"viability, T/C","second compound 10 µM, first compound 0.949 µM",30.5%
same,"viability, T/C","second compound 10 µM, first compound 3 µM",8.25%
same,"viability, T/C","second compound 31.6 µM, first compound 0.00949 µM",6.42%
same,"viability, T/C","second compound 31.6 µM, first compound 0.03 µM",7.02%
same,"viability, T/C","second compound 31.6 µM, first compound 0.0949 µM",7.1%
same,"viability, T/C","second compound 31.6 µM, first compound 0.3 µM",7.06%
same,"viability, T/C","second compound 31.6 µM, first compound 0.949 µM",7.26%
same,"viability, T/C","second compound 31.6 µM, first compound 3 µM",9.15%
same,"viability, T/C","second compound 100 µM, first compound 0.00949 µM",7.03%
same,"viability, T/C","second compound 100 µM, first compound 0.03 µM",6.67%
same,"viability, T/C","second compound 100 µM, first compound 0.0949 µM",6.67%
same,"viability, T/C","second compound 100 µM, first compound 0.3 µM",7.34%
same,"viability, T/C","second compound 100 µM, first compound 0.949 µM",7.7%
same,"viability, T/C","second compound 100 µM, first compound 3 µM",9.27%
